Results published in patent publication US7750166B2, “Ionic liquids containing a sulfonate anion” (University of South Alabama, priority 2002, dated 2010).
Where two headings read alike, the source gives them in different places.

Tests used:
[1] = Procedure: Supercritical applications using CO2 typically operate at temperatures between above 32° C. and pressures above about 1,070 psi.
[2] = Solubility in water; type: physicochemical
Remark: listed apart in the source
[3] = Solubility in common organic solvents; type: physicochemical; conditions: such as dichloromethane and acetone
Procedure: This example details the synthesis of a tetrabutyl ammonium molten salt of the amide having chemical formula III above. One-tenth of a mole (50 g) of the sodium salt of the amide-sulfonate salt having chemical structure III above (with R2 and R4 being CH2CH3, R1 and R5 each being a 2-ethylhexyl group, and R3 being CH2) was dissolved in 250 mL of dichloromethane, and one-tenth mole (32 g) of tetrabutyl ammonium bromide was added as a solid. The mixture was stirred for a day, after which time the solution was filtered first through filter paper and then through a short plug of silica gel. The eluted dichloromethane solution was quickly washed with water, dried over magnesium sulfate, and the solvent removed in vacuo, leaving the desired product in high yield (64 g, 89%). The product salt is soluble in both water and in several common organic solvents, such as dichloromethane and acetone. The melting range of the resulting salt was less than about 30° C. because the product was a viscous oil at room temperature. The product salt included Bis (N-ethyl-N-(2-ethylhexyl)sulfosuccinate diamide) anion paired with tetrabutyl ammonium cation.

SMILES: CCCCC(CC)COC(=O)CC(C(=O)OCC(CC)CCCC)S(=O)(=O)[O-].CCCC[N+](CCCC)(CCCC)CCCC (stereo not drawn) [Example 1, tetrabutylammonium docusate]
- Solubility in supercritical carbon dioxide (CO2) [1]: soluble

SMILES: CCCCC(CC)COC(=O)CC(C(=O)OCC(CC)CCCC)S(=O)(=O)[O-].CCCC[N+](C)(CCCC)CCCC (stereo not drawn) [Example 2, Me(n-Bu)3N Docusate]
- Solubility in water [2]: Hydrophobic

SMILES: CCCCC(CC)COC(=O)CC(C(=O)OCC(CC)CCCC)S(=O)(=O)[O-].CCCCC(CC)COC(=O)CC(C(=O)OCC(CC)CCCC)S(=O)(=O)[O-].C[N+](C)(C)CCCCCC[N+](C)(C)C (stereo not drawn) [Example 3, Me3N(CH2)6NMe3 Docusate]
- Solubility in water [2]: Hydrophobic

SMILES: CCCCC(CC)COC(=O)CC(C(=O)OCC(CC)CCCC)S(=O)(=O)[O-].CC[N+](CC)(CC)CC (stereo not drawn) [Example 5, Et4N Docusate]
- Solubility in water [2]: miscible

SMILES: CCCCC(CC)COC(=O)CC(C(=O)OCC(CC)CCCC)S(=O)(=O)[O-].CCCCCCn1cc[n+](C)c1 (stereo not drawn) [Example 6, 1-n-hexyl-3-methyl imidazolium docusate]
- Phase behaviour on contact with water (addition of additional water to the gel, followed by agitation): formation of two phases
- Phase behaviour on contact with water (contacted with 40 volume percent or less of water, even after agitation): formation of two phases
- Phase behaviour on contact with water (contacted with 50 volume percent water, agitation): stiff, visibly monophasic gel

SMILES: CCCCC(CC)CN(CC)C(=O)CC(C(=O)N(CC)CC(CC)CCCC)S(=O)(=O)[O-].CCCC[N+](CCCC)(CCCC)CCCC (stereo not drawn) [Example 11]
- Solubility in water [2]: soluble
- Solubility in several common organic solvents [3]: soluble
